Measurements reported in patent US12091393B2, “Small molecule vaccine adjuvant for enhancing or prolonging immune response” (The Regents of the University of California, priority 2018, dated 2024).
Entries after “also recorded” stand apart in the source; their conditions may differ. Read-outs that look alike come from different tables or passages of the source. One block for each molecule: values may come before it.

Assays:
THP-1 cells [1] = experiment: RNA seq in THP-1 cells; type: cell-based
BMDCs [2] = experiment: Gene expression in BMDCs; type: cell-based
THP-1 cells [3] = experiment: Co-stimulatory marker expression in THP-1 cells; type: cell-based
JNK, P38 and Erk1/2 = experiment: MAPK activation in THP-1 cells; type: cell-based; conditions: #42 alone
NF-κB [4] = experiment: Measurement of NF-κB activation using THP1-Blue NF-κB cells (SEAP); type: cell-based; conditions: for activity at 5 µM: 20 h, two point normalized, compound 1 as 200%; for NF-κB activity (SAR discussion, in words): evaluated in both the presence and absence of LPS
THP-1 cells [5] = experiment: Cell viability assay (MTT); type: cell-based; conditions: compound 5 μM alone, 18 h, normalized to DMSO as 100%
Method in brief: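 THP-1 cells in RPMI/10% FBS got compound at a final 5 μM (0.05% DMSO) for 18 h. MTT (0.5 mg/mL) was then added for 4 to 6 h, followed by SDS/HCl lysis overnight. Absorbance was read at 570 nm against 650 nm reference.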

NF-kB = NF-kB phosphorylation and nuclear localization in THP-1 cells (ICC and WB); type: cell-based
BMDCs [6] = experiment: Cytokine production in BMDCs; type: cell-based; conditions: for cytokine production (mIL-12, mIL-6, mTNFalpha) induced by Dectin1: with Dectin1 (FIGS. 4A-4C)
NF-κB [7] = experiment: cell-based NF-κB FRET assay; conditions: for NF-κB FRET Compound + LPS % Activation: two point normalized, compound 1 as 200%, LPS (10 ng/mL) as 100%
Excerpt: Site A was assigned the 4-substituent of thiazole ring, site B was the thiazole ring itself, site C was the central amide bond in the structure, site D was the benzene ring bearing 1,4-carboxyl and sulfamoyl group, site E was the sulfonamide functional group and site F was the amide substituent on the sulfamoyl group.

BMDCs [8] = experiment: Co-stimulatory marker expression in BMDCs; type: cell-based; conditions: for Co-stimulatory markers: CD40 and CD86 induce by LPS or MPLA: BMDCs
BMDCs [9] = experiment: Cytotoxicity / cell viability of BMDCs; type: cell-based
[10] = compound 5 μM + LPS, LPS (10 ng/mL) as 100%, read-out: NF-κB SEAP Compound + LPS % Activation
[11] = compound 5 μM alone, LPS or DMSO as 100%, read-out: NF-κB SEAP Compound alone % Activation

reactogenicity (Reactogenicity (FIG. 21)): not reactogenic
Compound: Cc1ccc(C)c(-c2csc(NC(=O)c3ccc(S(=O)(=O)N4CCCCC4)cc3)n2)c1 [Compound 1, N-(4-(2,5-dimethylphenyl)thiazol-2-yl)-4-(piperidin-1-ylsulfonyl)benzamide]
RNA seq (THP-1 cells [1]): Induction of CSF-1 and LIF
Gene expression: CD40, IL-12. CXCL5 expression (BMDCs [2]; BMDCs): Enhancement of CD40, IL-12.
CD40, CXCL10 and IL-12 gene expression kinetics (BMDCs [2]; by 10 hours after exposure, BDMCs, LPS and compound 42 (FIG. 7)): upregulated
Co-stimulatory markers: CD40 and CD86 induce by LPS (THP-1 cells [3]): Enhancement of CD40 and CD86
MAPK activation: phosphorylation of JNK, P38 and Erk1/2 (JNK, P38 and Erk1/2; listed as 42): induced
MAPK activation: phosphorylation of JNK, P38 and Erk1/2 (JNK, P38 and Erk1/2; listed as #42): phosphorylation of JNK, P38 and Erk1/2
activity at 5 µM (NF-κB [4]; [10]): 200%
activity at 5 µM (NF-κB [4]; [11]): 200%
MTT Compound alone % Viability (THP-1 cells [5]): 102.81%
phosphorylation of NFkB, combination of LPS and compound (NF-kB; LPS + compound 42): synergistic
NF-kB phosphorylation and nuclear localization induced by LPS (ICC and WB) (NF-kB; THP-1 cells, with LPS, listed as #42): prolonged; also recorded: Prolongation of NF-kB
phosphorylation of NF-kB by compound alone (NF-kB; compound 42 alone (FIGS. 9A-9C)): induced and sustained
cytokine production (mIL-12, mIL-6, mTNFalpha) induced by Dectin1 (BMDCs [6]; listed as 42): not enhanced; also recorded: not by Dectin1
cytokine production (mIL-12, mIL-6, mTNFalpha) induced by Dectin1 (BMDCs [6]; listed as #42): not by Dectin1
cytokine production induced by TLR ligands (BMDCs [6]; with a TLR ligand (FIGS. 3-4)): enhanced
NF-κB FRET Compound + LPS % Activation (NF-κB [7]): 200.00%
enhancement of NF-κB activity by LPS at 12 h (confirmatory kinetic screening) (NF-κB [7]; in presence of LPS, 12 h incubation): most potent
co-stimulatory molecule expression induced by LPS (BMDCs [8]; BDMCs, LPS (FIGS. 5A-5G)): enhances
co-stimulatory molecule expression induced by MPLA (BMDCs [8]; BDMCs, MPLA (FIGS. 6A-6F)): enhances
Co-stimulatory markers: CD40 and CD86 induce by LPS or MPLA (BMDCs [8]; listed as 42): enhanced
Co-stimulatory markers: CD40 and CD86 induce by LPS or MPLA (BMDCs [8]; listed as #42): enhanced; also recorded: Enhancement of CD40 and CD86
Cytotoxicity (BMDCs [9]): Enhancement of cell viability

Compound: Cc1ccc(N=[N+]=[N-])cc1-c1csc(NC(=O)c2ccc(S(=O)(=O)N3CCCCC3)cc2)n1 [Compound 67, N-(4-(5-azido-2-methylphenyl)thiazol-2-yl)-4-(piperidin-1-ylsulfonyl)benzamide]
activity at 5 µM (NF-κB [4]; [10]): 159%
activity at 5 µM (NF-κB [4]; [11]): 177%
NF-κB activity (SAR discussion, in words) (NF-κB [4]): retained activity
MTT Compound alone % Viability (THP-1 cells [5]): 90.50%
NF-κB FRET Compound + LPS % Activation (NF-κB [7]): 168.96%

Compound: Cc1ccc(N=[N+]=[N-])c(-c2csc(NC(=O)c3ccc(S(=O)(=O)N4CCCCC4)cc3)n2)c1 [Compound 70, N-(4-(2-azido-5-methylphenyl)thiazol-2-yl)-4-(piperidin-1-ylsulfonyl)benzamide]
activity at 5 µM (NF-κB [4]; [10]): 97.3%
activity at 5 µM (NF-κB [4]; [11]): 101%
NF-κB activity (SAR discussion, in words) (NF-κB [4]): inactive
MTT Compound alone % Viability (THP-1 cells [5]): 77.84%
NF-κB FRET Compound + LPS % Activation (NF-κB [7]): 70.93%

Compound: C#CCNS(=O)(=O)c1ccc(C(=O)Nc2nc(-c3cc(C)ccc3C)cs2)cc1 [Compound 72a, N-(4-(2,5-dimethylphenyl)thiazol-2-yl)-4-(N-(prop-2-yn-1-yl)sulfamoyl)benzamide]
activity at 5 µM (NF-κB [4]; [10]): 102%
activity at 5 µM (NF-κB [4]; [11]): 99.2%
NF-κB activity (SAR discussion, in words) (NF-κB [4]): lost their activity
MTT Compound alone % Viability (THP-1 cells [5]): 87.46%
NF-κB FRET Compound + LPS % Activation (NF-κB [7]): 121.36%

Compound: C#CCN(CC)S(=O)(=O)c1ccc(C(=O)Nc2nc(-c3cc(C)ccc3C)cs2)cc1 [Compound 72b, N-(4-(2,5-dimethylphenyl)thiazol-2-yl)-4-(N-ethyl-N-(prop-2-yn-1-yl)sulfamoyl)benzamide]
activity at 5 µM (NF-κB [4]; [10]): 109%
activity at 5 µM (NF-κB [4]; [11]): 105%
NF-κB activity (SAR discussion, in words) (NF-κB [4]): lost their activity
MTT Compound alone % Viability (THP-1 cells [5]): 81.42%
NF-κB FRET Compound + LPS % Activation (NF-κB [7]): 129.85%

Compound: C#CCN(CCC)S(=O)(=O)c1ccc(C(=O)Nc2nc(-c3cc(C)ccc3C)cs2)cc1 [Compound 72c, N-(4-(2,5-dimethylphenyl)thiazol-2-yl)-4-(N-(prop-2-yn-1-yl)-N-propylsulfamoyl)benzamide]
activity at 5 µM (NF-κB [4]; [10]): 122%
activity at 5 µM (NF-κB [4]; [11]): 103%
NF-κB activity (SAR discussion, in words) (NF-κB [4]): lost their activity
MTT Compound alone % Viability (THP-1 cells [5]): 84.00%
NF-κB FRET Compound + LPS % Activation (NF-κB [7]): 133.88%

Compound: C#CC1CCN(S(=O)(=O)c2ccc(C(=O)Nc3nc(-c4cc(C)ccc4C)cs3)cc2)CC1 [Compound 72d, N-(4-(2,5-dimethylphenyl)thiazol-2-yl)-4-((4-ethynylpiperidin-1-yl)sulfonyl)benzamide]
activity at 5 µM (NF-κB [4]; [10]): 152%
activity at 5 µM (NF-κB [4]; [11]): 112%
NF-κB activity (SAR discussion, in words) (NF-κB [4]): active
MTT Compound alone % Viability (THP-1 cells [5]): 83.27%
NF-κB FRET Compound + LPS % Activation (NF-κB [7]): 123.22%

Compound: Cc1ccc(C)c(-c2csc(NC(=O)c3ccc(S(=O)(=O)N4CCC5(CC4)N=N5)cc3)n2)c1 [Compound 72e, 4-((1,2,6-triazaspiro[2.5]oct-1-en-6-yl)sulfonyl)-N-(4-(2,5-dimethylphenyl)thiazol-2-yl)benzamide]
activity at 5 µM (NF-κB [4]; [10]): 168%
activity at 5 µM (NF-κB [4]; [11]): 144%
NF-κB activity (SAR discussion, in words) (NF-κB [4]): active
MTT Compound alone % Viability (THP-1 cells [5]): 84.40%
NF-κB FRET Compound + LPS % Activation (NF-κB [7]): 168.82%

Compound: C#CC1CCN(S(=O)(=O)c2ccc(C(=O)Nc3nc(-c4cc(N=[N+]=[N-])ccc4C)cs3)cc2)CC1 [Compound 73, N-(4-(5-azido-2-methylphenyl)thiazol-2-yl)-4-((4-ethynylpiperidin-1-yl)sulfonyl)benzamide]
activity at 5 µM (NF-κB [4]; [10]): 398%
activity at 5 µM (NF-κB [4]; [11]): 363%
MTT Compound alone % Viability (THP-1 cells [5]): 84.53%
NF-κB FRET Compound + LPS % Activation (NF-κB [7]): 197.10%
